Results on 15 compounds are retold here after patent publication US12441730B2, “PRMT5 inhibitors” (Merck Sharp & Dohme LLC, priority 2019, dated 2025).

Read-outs that look alike come from different tables or passages of the source. Some results are limits rather than exact numbers.

Assay [1] concerns the target T1, Full-length (FL)-PRMT5-MEP50 enzyme complex (Homo sapiens, UniProt O14744).
T1 construct: Full-length (FL)-PRMT5-MEP50 enzyme complex (recombinant proteins from baculovirus-transfected Sf21 cells: FL-PRMT5; MW=73837 kDa and FL-MEP50; MW=38614); made in house; host or cells: baculovirus-transfected Sf21 cells
As to the kind of experiment: PRMT5-MEP50 Enzyme Methylation Assay (Version A). Type of assay: biochemical. The procedure:
PRMT5-MEP50 Enzyme Methylation Assay (Version A)
PRMT5-MEP50 biochemical assay is a direct measurement of the methylation activity of the enzyme complex on a short peptide substrate derived from the N-terminus of H4 histone. Methylation experiment was performed with recombinant PRMT5-MEP50 protein complex. The assessment of inhibitory effect of small molecules was measured by the effectiveness of the compounds to inhibit this reaction (EC50).
In this assay, the potency (EC50) of each compound was determined from a twenty-point (1:2 serial dilution; top compound concentration of 100000 nM) titration curve using the following outlined procedure. To each well of a white ProxiPlus 384 well-plate, 100 nL of compound (1% DMSO in final assay volume of 10 μL) was dispensed, followed by the addition of 8 μL of 1× assay buffer (50 mM Bicine pH 8.0, 1 mM DTT, 0.004% Tween20, 0.01% BSA) containing 1.25 nM of Full-length (FL)-PRMT5-MEP50 enzyme complex (recombinant proteins from baculovirus-transfected Sf21 cells: FL-PRMT5; MW=[…] and FL-MEP50; MW=38614) and 1 μL of 150 μM S-(5′-Adenosyl)-L-Methionine Chloride (SAM). A plate were sealed and placed in a 37° C. humidified chamber for a 60 minutes pre-incubation with compound. Subsequently, each reaction was initiated by the addition of 1 μL 1× assay buffer containing 750 nM biotinylated H4R3(Me1) peptide. The final reaction in each well of 10 μL consists of 1.0 nM PRMT5-MEP50, 75 nM biotinylated-peptide, and 15 μM SAM. Methylation reactions were allowed to proceed for 150 minutes in a sealed plate at 37° C. Reactions were immediately quenched by the addition of 1 μL of 5% formic acid. A plate was then frozen and shipped to SAMDI™ Tech Inc. to determine the percent conversion from H4R3(Me1) to H4R3(Me2). Dose-response curves were generated by plotting percent effect (% product conversion; Y-axis) vs. Log 10 compound concentrations (X-axis). EC50 values were determined by non-linear regression according to models for either sigmoidal (4 parameters) or biphasic (7 parameters) dose-response curves.

Assay [2] deals with symmetric dimethylation of arginine (SDMA) of PRMT5 substrates in MCF-7 cells. As to the kind of experiment: PRMT5 Cell Target Engagement (TE) Assay. It counts as cell-based. The settings on record: 3 days treatment, SDMA high content imaging. From the text: PRMT5 Cell Target Engagement (TE) Assay
The PRMT5 TE assay is a biomarker assay for identifying compounds that inhibit symmetric dimethylation of arginine (SDMA) of PRMT5 substrates. The following substrates have been reported for PRMT5: histone H2A and H4 R3, Histone H3 R2, Histone H3 R8, spliceosome Sm proteins, ribosomal protein RPS10, p53, FEN1, nucleoplasmin, nucleolin, EGFR and EBNA. The assay focuses on detecting symmetrically dimethylated nuclear proteins using high content imaging technology. Detection of the expression of symmetrically dimethylated nuclear proteins is through a mixture of primary rabbit monoclonal antibodies to SDMA (CST 13222), which in turn recognized by an Alexafluor 488 dye-conjugated anti-rabbit IgG secondary antibody. The IN Cell Analyzer 2200 or Opera-Phenix measures nuclear Alexafluor 488 fluorescent dye intensity that is directly related to the level of expression of symmetrically dimethylated nuclear proteins at the single cell level. Nuclear AF488 dye intensities are compared to the mean value for DMSO treated cells (MIN) to report percent of inhibition for each compound-treated well.
In this assay, the cell potency (EC50) of each compound was determined from a ten point (1:3 serial dilution; top compound concentration of 10000 nM) titration curve using the following outlined procedure. Each well of a BD falcon collagen coated black/clear bottom 384-well plate was seeded with 4000 MCF-7 cells in 30 μl media and allowed to attach for 5 h. Media is ATCC-formulated Eagle's Minimum Essential Medium, Catalog No. 30-2003. To make the complete growth medium, the following components were added to the base medium: 0.01 mg/mL human recombinant insulin; fetal bovine serum to a final concentration of 10%. Additional 30 μl of media containing 2× compounds were added to each well. Cells were treated for 3 days in 37° C. CO2 incubator. On day 3, cells were fixed with Cytofix, permeabilized with 0.4% Triton-X-100/Cytofix, and washed with D-PBS without Ca/Mg. Cells were blocked with Licor Odessey blocking reagent for 1 h at room temperature, followed by incubation with anti-SDMA (1:1000) antibody at 4° C. overnight. 1° antibody was removed, followed by three washings with DPBS without Ca/Mg and 0.05% Tween20. Hoechst (5 μg/mL), Cell Mask deep stain (1:2000) and Alexa488-conjugated goat anti-rabbit IgG (2 μg/mL) was added for 1 h at room temperature. A final washing step (three washes) was performed before sealing plate for imaging on In Cell Analyzer 2200 or Opera-Phenix. Images from analyzer were uploaded to Columbus (at WP or BOS) for image analysis. IC50 values were determined by 4 parameters robust fit of percent fluorescence units vs. (Log10) compound concentrations.

Where [3] appears, read: second value of 7 parameter biphasic fit, read-out: Enzyme Methylation Assay Version A (EC50 2).
[4] abbreviates: single EC50 = 4 parameter single site sigmoidal fit, EC50 1 = first value of 7 parameter biphasic fit, read-out: Enzyme Methylation Assay Version A (EC50 or EC50 1).

T1 sequence (O14744 whole entry): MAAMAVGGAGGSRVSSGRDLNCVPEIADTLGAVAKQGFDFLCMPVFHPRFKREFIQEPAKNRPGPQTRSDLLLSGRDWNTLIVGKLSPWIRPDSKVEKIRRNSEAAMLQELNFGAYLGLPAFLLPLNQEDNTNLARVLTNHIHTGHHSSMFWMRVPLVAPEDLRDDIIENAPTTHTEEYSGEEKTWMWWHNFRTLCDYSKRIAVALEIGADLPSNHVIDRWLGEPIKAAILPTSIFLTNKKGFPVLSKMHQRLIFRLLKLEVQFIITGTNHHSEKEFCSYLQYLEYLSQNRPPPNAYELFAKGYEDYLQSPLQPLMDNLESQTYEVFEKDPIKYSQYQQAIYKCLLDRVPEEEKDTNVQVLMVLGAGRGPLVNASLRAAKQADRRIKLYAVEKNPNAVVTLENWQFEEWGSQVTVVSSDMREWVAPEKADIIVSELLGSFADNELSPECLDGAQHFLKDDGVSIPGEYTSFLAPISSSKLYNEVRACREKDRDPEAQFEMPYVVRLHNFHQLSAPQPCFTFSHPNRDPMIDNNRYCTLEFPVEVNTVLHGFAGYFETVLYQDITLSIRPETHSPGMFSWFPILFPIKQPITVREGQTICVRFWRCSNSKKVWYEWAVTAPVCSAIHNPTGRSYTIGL
T1 sequence (Q9BQA1 whole entry partner): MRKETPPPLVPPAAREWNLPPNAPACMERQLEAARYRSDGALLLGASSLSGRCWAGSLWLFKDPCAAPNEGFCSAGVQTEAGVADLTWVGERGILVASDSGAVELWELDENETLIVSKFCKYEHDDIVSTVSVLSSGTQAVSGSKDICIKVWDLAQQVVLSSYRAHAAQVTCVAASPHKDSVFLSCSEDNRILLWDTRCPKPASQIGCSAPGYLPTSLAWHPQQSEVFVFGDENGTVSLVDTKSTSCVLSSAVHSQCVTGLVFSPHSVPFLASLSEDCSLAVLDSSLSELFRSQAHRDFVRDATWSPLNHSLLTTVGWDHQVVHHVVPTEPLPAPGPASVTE

In the case of `O=C(c1cn2cc(Br)cc(F)c2n1)N1CC[C@]2(Cc3ccccc3CN2)[C@H](O)C1` [Example 217, (6-bromo-8-fluoroimidazo[1,2-a]pyridin-2-yl)[(3R,3′R)-3′-hydroxy-1,4-dihydro-1′H,2H-spiro[isoquinoline-3,4′-piperidin]-1′-yl]methanone], the EC50 turned out to be 40.3 nM in assay [1] (setting [3]); 0.73 nM in assay [1] (setting [4]); 11.3 nM in assay [2] (Homo sapiens, MCF7, 72 h).
As for `COc1nc2nc(C(=O)N3CC[C@]4(Cc5ccccc5CN4)[C@H](O)C3)cn2cc1C` [Example 128, [(3R,3′R)-3′-hydroxy-1,4-dihydro-1′H,2H-spiro[isoquinoline-3,4′-piperidin]-1′-yl](7-methoxy-6-methylimidazo[1,2-a]pyrimidin-2-yl)methanone], the EC50 was found to be 2690 nM in assay [1] (setting [3]); 5.33 nM in assay [1] (setting [4]); 195 nM in assay [2] (Homo sapiens, MCF7, 72 h).
For `COCCN1CC(C2CC2)Cn2cc(C(=O)N3CC[C@]4(Cc5ccccc5CN4)[C@H](O)C3)nc21` (single isomer, unassigned) [Example 144], the EC50 was 65.9 nM in assay [1] (setting [4]) and 173 nM in assay [2].
As for `O=C(c1cn2cc(C(F)F)ccc2n1)N1CC[C@]2(Cc3ccccc3CN2)[C@H](O)C1` [Example 41, (6-(difluoromethyl)imidazo[1,2-a]pyridin-2-yl)((3R,3’R)-3′-hydroxy-1,4-dihydro-2H-spiro[isoquinoline-3,4′-piperidin]-1′-yl)methanone], the EC50 in assay [1] (setting [3]) was found to be 209 nM; in assay [1] (setting [4]), 0.513 nM; in assay [2] (Homo sapiens, MCF7, 72 h), 2.44 nM.
Consider `Cc1ccc(C(=O)N2CC[C@]3(Cc4ccccc4CN3)[C@H](O)C2)c(O)n1` [Example 219, 3-{[(3R,3′R)-3′-hydroxy-1,4-dihydro-1′H,2H-spiro[isoquinoline-3,4′-piperidin]-1′-yl]carbonyl}-6-methyl-2(1H)-pyridinone], for which the EC50 stood at 17400 nM in assay [1] (setting [3]); 204 nM in assay [1] (setting [4]); 4160 nM in assay [2] (Homo sapiens, MCF7, 72 h).
As to `O=C(c1cnc2ncnn2c1)N1CC[C@]2(Cc3ccccc3CN2)[C@H](O)C1` [Example 195, [(3R,3′R)-3′-hydroxy-1,4-dihydro-1′H,2H-spiro[isoquinoline-3,4′-piperidin]-1′-yl]([1,2,d]triazolo[1,5-a]pyrimidin-6-yl)methanone], the EC50 in assay [1] (setting [4]) is 15700 nM; in assay [2] (Homo sapiens, MCF7, 72 h), at least 10000 nM.
As to `O=C(c1cn2cccc(Br)c2n1)N1CC[C@]2(Cc3ccccc3CN2)[C@H](O)C1` [Example 209, (8-bromoimidazo[1,2-a]pyridin-2-yl)[(3R,3′R)-3′-hydroxy-1,4-dihydro-1′H,2H-spiro[isoquinoline-3,4′-piperidin]-1′-yl]methanone], the EC50 is 3890 nM in assay [1] (setting [3]); 3.74 nM in assay [1] (setting [4]); 256 nM in assay [2] (Homo sapiens, MCF7, 72 h).
With `CC(n1ccc(C(=O)N2CC[C@]3(Cc4ccccc4CN3)[C@H](O)C2)cc1=O)C(F)(F)F` (single isomer, unassigned) [Example 103, 4-((3R,3′R)-3′-hydroxy-2,4-dihydro-1H-spiro[isoquinoline-3,4′-piperidin]-1′-ylcarbonyl)-1-((R or S)1,1,1-trifluoropropan-2-yl)pyridin-2(1H)-one], the EC50 came to 80000 nM in assay [1] (setting [3]), 171 nM in assay [1] (setting [4]) and 2860 nM in assay [2].
Turning to `N#CCCc1cc(C(F)(F)F)cn2cc(C(=O)N3CC[C@]4(Cc5ccccc5CN4)[C@H](O)C3)nc12` [Example 34, 3-(2-((3R,3’R)-3′-hydroxy-1,4-dihydro-2H-spiro[isoquinoline-3,4′-piperidine]-1′-carbonyl)-6-(trifluoromethyl)imidazo[1,2-a]pyridin-8-yl)propanenitrile], the EC50 in assay [1] (setting [3]) stood at 229 nM; in assay [1] (setting [4]), 0.909 nM; in assay [2] (Homo sapiens, MCF7, 72 h), 4 nM.
As for `COC(C)c1ccc2nc(C(=O)N3CC[C@]4(Cc5ccccc5CN4)[C@H](O)C3)cn2c1` (single isomer, unassigned) [Example 23, ((3R,3’R)-3′-hydroxy-1,4-dihydro-2H-spiro[isoquinoline-3,4′-piperidin]-1-yl)(6-((R or S)-1-methoxyethyl)imidazo[1,2-a]pyridin-2-yl)methanone], the EC50 in assay [1] (setting [3]) worked out at 851 nM; in assay [1] (setting [4]) it was 1.8 nM; in assay [2], 46.4 nM.
`CO[C@H](C)c1cc(CN2CCCC2)cn2cc(C(=O)N3CC[C@]4(Cc5ccccc5CN4)[C@H](O)C3)nc12` [Example 247, [(3R,3′R)-3′-hydroxy-1,4-dihydro-1′H,2H-spiro[isoquinoline-3,4′-piperidin]-1′-yl]{8-[(1R)-1-methoxyethyl]-6-(1-pyrrolidinylmethyl)imidazo[1,2-a]pyridin-2-yl}methanone]: the EC50 in assay [1] (setting [3]) is 646 nM; in assay [1] (setting [4]) it was 0.661 nM; in assay [2] (Homo sapiens, MCF7, 72 h), 75.3 nM.
Regarding `Cc1nc2nc(C(=O)N3CC[C@]4(Cc5ccccc5CN4)[C@H](O)C3)cn2cc1C1CC1` [Example 63, (6-cyclopropyl-7-methylimidazo[1,2-a]pyrimidin-2-yl)[(3R,3′R)-3′-hydroxy-1,4-dihydro-1′H,2H-spiro[isoquinoline-3,4′-piperidin]-1′-yl]methanone], the EC50 in assay [1] (setting [3]) came out at 417 nM; in assay [1] (setting [4]) it was 0.583 nM; in assay [2] (Homo sapiens, MCF7, 72 h), 45.8 nM.
Consider `O=C(c1nn2cc(Br)cnc2c1Cl)N1CC[C@]2(Cc3ccccc3CN2)[C@H](O)C1` [Example 58, (6-bromo-3-chloropyrazolo[1,5-a]pyrimidin-2-yl)[(3R,3′R)-3′-hydroxy-1,4-dihydro-1′H,2H-spiro[isoquinoline-3,4′-piperidin]-1′-yl]methanone], for which the EC50 in assay [1] (setting [3]) turned out to be 313 nM; in assay [1] (setting [4]), 0.715 nM; in assay [2] (Homo sapiens, MCF7, 72 h) it was 10.1 nM.
The matching figures for `Cc1cc(I)c2nc(C(=O)N3CC[C@]4(Cc5ccccc5CN4)[C@H](O)C3)cn2c1` [Example 203, [(3R,3′R)-3′-hydroxy-1,4-dihydro-1′H,2H-spiro[isoquinoline-3,4′-piperidin]-1′-yl](8-iodo-6-methylimidazo[1,2-a]pyridin-2-yl)methanone]: 292 nM, 0.846 nM and 25.7 nM.
The like results for `Cc1cnc2nc(C(=O)N3CC[C@]4(Cc5ccccc5CN4)[C@H](O)C3)cn2c1` [Example 120, [(3R,3′R)-3′-hydroxy-1,4-dihydro-1′H,2H-spiro[isoquinoline-3,4′-piperidin]-1′-yl](6-methylimidazo[1,2-a]pyrimidin-2-yl)methanone] were, in that order, 351 nM, 0.499 nM and 28.8 nM.
